{"source": "patent US5057324A", "about": "“Kallikrein inhibitor substance, a process for preparation and pharmaceutical compositions thereof” (priority 1987, dated 1991)", "test_system": "formation of kallikrein", "assay": "Inhibitory action against the formation of kallikrein (kaolin-activated human plasma, synthetic substrate)", "assay_type": "biochemical", "conditions": "human plasma diluted with saline, kaolin activation, substrate D-Pro-Phe-Arg-p-nitroaniline", "protocol": "Kallikrein is a group of proteinase widely distributed in the plasma and tissues of various kinds of animals. […] The inhibitory action of the substance of the present invention against the formation of kallikrein was assayed according to the method described in Example 1 of European Patent Publication No.0259857. That is, in the primary reaction, kaolin suspension was added to the human plasma diluted with physiological saline. After a certain while, Lima Bean trypsin inhibitor was added to terminate the activation of kallikrein. In the second reaction, the amount of kallikrein formed in the primary reaction was measured by the use of a synthetic substrate specific to kallikrein, such as D-Pro-Phe-Arg-p-nitroaniline. In the above reaction system, the activity of the test substance to inhibit the formation of kallikrein was measured by mixing the test substance with the human plasma prior to addition of kaolin suspension.", "data": [{"smiles": "CC(C(=O)O)c1cccc(C(=O)c2ccccc2)c1", "note": "(stereo not shown) [Ketoprofen]", "values": [{"measurement": "IC50 = Concentration 50% inhibiting the formation of kallikrein", "result": 700, "unit": "µg/mL"}]}]}
